Here are results for 22 compounds from PubChem BioAssay AID328 (DTP/NCI, 2004).

The test system of the assay is BDF1 mice, P388 leukemia ip, median survival T/C. Kind of assay: NCI In Vivo Anticancer Drug Screen. Data for tumor model P388 Leukemia (intraperitoneal) in B6D2F1 (BDF1) mice. The following applies: endpoint: median survival time, higher = longer survival. The essentials:
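Steps: implant the tumour, treat one group with compound and another with vehicle, record survival, then divide treated by control.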

[1] abbreviates: dose: 100.0 mg/kg/injection, schedule: Q01DX001 (ip), vehicle: Klucel (hydroxypropylcellulose) (HPC).
The mark [2] stands for this setting: dose: 100.0 mg/kg/injection, schedule: Q01DX009 (ip), vehicle: Klucel (hydroxypropylcellulose) (HPC).
Setting [3] is: dose: 100.0 mg/kg/injection, schedule: Q04DX003 (ip), vehicle: Klucel (hydroxypropylcellulose) (HPC).
Where [4] appears, read: dose: 200.0 mg/kg/injection, schedule: Q01DX001 (ip), vehicle: Klucel (hydroxypropylcellulose) (HPC).
Setting [5] is: dose: 200.0 mg/kg/injection, schedule: Q01DX009 (ip), vehicle: Klucel (hydroxypropylcellulose) (HPC).
[6] abbreviates: dose: 200.0 mg/kg/injection, schedule: Q04DX003 (ip), vehicle: Klucel (hydroxypropylcellulose) (HPC).
The mark [7] stands for this setting: dose: 400.0 mg/kg/injection, schedule: Q01DX009 (ip), vehicle: Klucel (hydroxypropylcellulose) (HPC).
Where [8] appears, read: dose: 400.0 mg/kg/injection, schedule: Q04DX003 (ip), vehicle: Klucel (hydroxypropylcellulose) (HPC).
Where [9] appears, read: dose: 100.0 mg/kg/injection, schedule: Q04DX003 (ip), vehicle: saline.
[10] abbreviates: dose: 200.0 mg/kg/injection, schedule: Q04DX003 (ip), vehicle: saline.
The mark [11] stands for this setting: dose: 400.0 mg/kg/injection, schedule: Q04DX003 (ip), vehicle: saline.
The mark [12] stands for this setting: dose: 100.0 mg/kg/injection, schedule: Q04DX003 (ip), vehicle: saline with Tween-80.
Setting [13] is: dose: 200.0 mg/kg/injection, schedule: Q04DX003 (ip), vehicle: saline with Tween-80.
Setting [14] is: dose: 400.0 mg/kg/injection, schedule: Q04DX003 (ip), vehicle: saline with Tween-80.
Where [15] appears, read: dose: 50.0 mg/kg/injection, schedule: Q01DX009 (ip), vehicle: saline with Tween-80.
Setting [16] is: dose: 100.0 mg/kg/injection, schedule: Q01DX009 (ip), vehicle: saline with Tween-80.
Setting [17] is: dose: 200.0 mg/kg/injection, schedule: Q01DX009 (ip), vehicle: saline with Tween-80.
[18] abbreviates: dose: 100.0 mg/kg/injection, schedule: Q01DX005 (ip), vehicle: saline with Tween-80.
[19] abbreviates: dose: 12.5 mg/kg/injection, schedule: Q01DX009 (ip), vehicle: saline.
The mark [20] stands for this setting: dose: 12.5 mg/kg/injection, schedule: Q04DX003 (ip), vehicle: saline with Tween-80.
Where [21] appears, read: dose: 25.0 mg/kg/injection, schedule: Q04DX003 (ip), vehicle: saline with Tween-80.
[22] abbreviates: dose: 50.0 mg/kg/injection, schedule: Q04DX003 (ip), vehicle: saline with Tween-80.

SMILES strings stand for the structures. Toxic doses and inconclusive results are not listed.

For the compound `CC(=O)c1cccc(N)c1`, the T/C under setting [1] is 104 % of control; the T/C under setting [2] was 100 % of control; the T/C under setting [3] was 100 % of control; the T/C under setting [4] was 100 % of control; the T/C under setting [5] was 91 % of control; the T/C under setting [6] is 109 % of control. The T/C was 113 % of control (dose: 400.0 mg/kg/injection, schedule: Q01DX001 (ip), vehicle: Klucel (hydroxypropylcellulose) (HPC)); 95 % of control under setting [7]; 109 % of control under setting [8].

`c1cncc(-c2ncnc3c2Cc2ccccc2-3)c1`: the T/C by setting is: (dose: 75.0 mg/kg/injection, schedule: Q01DX009 (ip), vehicle: Klucel (hydroxypropylcellulose) (HPC)) 100 % of control; (dose: 150.0 mg/kg/injection, schedule: Q01DX009 (ip), vehicle: Klucel (hydroxypropylcellulose) (HPC)) 113 % of control.

Regarding `NC(N)=NC(N)=Nc1ccc2ccc3cccc4ccc1c2c34`, the T/C (dose: 25.0 mg/kg/injection, schedule: Q04DX003 (ip), vehicle: saline + alcohol) was 98 % of control and the T/C (dose: 50.0 mg/kg/injection, schedule: Q04DX003 (ip), vehicle: saline + alcohol) is 106 % of control.

Turning to `CC(=O)Nc1cc(NC(C)=O)cc([N+](=O)[O-])c1`, the T/C is 110 % of control (dose: 25.0 mg/kg/injection, schedule: Q04DX003 (ip), vehicle: saline); 106 % of control (dose: 50.0 mg/kg/injection, schedule: Q04DX003 (ip), vehicle: saline); 100 % of control under setting [9]; 107 % of control under setting [10]; 103 % of control under setting [11].

In the case of `Cc1ccc(C)c(Cc2c(C=O)[nH]c(=S)[nH]c2=O)c1`, the T/C is 100 % of control under setting [12], 109 % of control under setting [13] and 122 % of control under setting [14].

As for `CC(C)c1nsc2c1C(=O)NC(C(C)(C)C)N2` (stereo unspecified), the T/C by setting is: under setting [15], 109 % of control; under setting [16], 89 % of control; under setting [17], 95 % of control.

In the case of `O=C(c1ccccc1)C1(Br)CCC1`, the T/C by setting is: (dose: 100.0 mg/kg/injection, schedule: Q01DX009 (ip), vehicle: saline sonified) 91 % of control; (dose: 200.0 mg/kg/injection, schedule: Q01DX009 (ip), vehicle: saline sonified) 100 % of control; (dose: 400.0 mg/kg/injection, schedule: Q01DX009 (ip), vehicle: saline sonified) 95 % of control.

On to `CCCCCCCCCCC(=O)OCC#CC#CCOC(=O)CCCCCCCCCC`, for which the T/C under setting [3] was 104 % of control, the T/C under setting [6] is 104 % of control and the T/C under setting [8] is 100 % of control.

Turning to `CC#CCOCC1CN(c2ccccc2)C(=O)O1` (stereo unspecified), the T/C is, setting by setting: under setting [9], 92 % of control; under setting [17], 100 % of control; under setting [10], 92 % of control; (dose: 400.0 mg/kg/injection, schedule: Q01DX009 (ip), vehicle: saline with Tween-80) 100 % of control; under setting [11], 100 % of control.

With `O=C(NCCNC(=O)c1cccc([N+](=O)[O-])c1O)c1cccc([N+](=O)[O-])c1O`, the T/C (dose: 50.0 mg/kg/injection, schedule: Q01DX001 (ip), vehicle: Klucel (hydroxypropylcellulose) (HPC)) was 100 % of control; the T/C under setting [1] was 100 % of control; the T/C under setting [4] is 104 % of control.

For `CC1(C)O[C@]2(C)CC[C@@H]1[C@H](O)[C@@H]2N1CCCC1`, the T/C runs as follows: (dose: 50.0 mg/kg/injection, schedule: Q01DX005 (ip), vehicle: saline with Tween-80) 111 % of control; under setting [18], 104 % of control.

Consider `O=C(/C(=C\c1ccccc1)CBr)c1ccc(Br)cc1`, for which the T/C runs as follows: (dose: 3.12 mg/kg/injection, schedule: Q01DX009 (ip), vehicle: saline) 115 % of control; (dose: 6.25 mg/kg/injection, schedule: Q01DX009 (ip), vehicle: saline) 115 % of control; under setting [19], 110 % of control.

Turning to `CC(=N\O)/C(C)=N/O.CC(=N\O)/C(C)=N/O.[Pd]`, the T/C is 100 % of control (dose: 1.57 mg/kg/injection, schedule: Q01DX009 (ip), vehicle: Klucel (hydroxypropylcellulose) (HPC)); 100 % of control (dose: 3.13 mg/kg/injection, schedule: Q01DX009 (ip), vehicle: Klucel (hydroxypropylcellulose) (HPC)); 100 % of control (dose: 6.25 mg/kg/injection, schedule: Q01DX009 (ip), vehicle: Klucel (hydroxypropylcellulose) (HPC)).

On to `Cc1cnc(=S)n(-c2ccccc2)c1`, for which the T/C was 95 % of control under setting [20], 104 % of control under setting [21] and 98 % of control under setting [22].

For the compound `C(=N\C(/N=C/c1ccccc1)c1ccccc1)/c1ccccc1`, the T/C under setting [2] is 91 % of control; the T/C under setting [3] was 100 % of control; the T/C under setting [6] is 95 % of control; the T/C under setting [7] is 87 % of control; the T/C under setting [8] was 100 % of control.

In the case of `Cc1ccc(CC(=O)O)cc1C`, the T/C (dose: 44.0 mg/kg/injection, schedule: Q04DX003 (ip), vehicle: saline with Tween-80) is 109 % of control; the T/C (dose: 66.0 mg/kg/injection, schedule: Q04DX003 (ip), vehicle: saline with Tween-80) was 104 % of control; the T/C under setting [12] is 104 % of control; the T/C (dose: 150.0 mg/kg/injection, schedule: Q04DX003 (ip), vehicle: saline with Tween-80) was 104 % of control.

`O=C(CN1CCCCC1)Nc1nc(-c2ccc(Cl)cc2)cs1`: under setting [18], the T/C was 91 % of control.

Consider `COc1ccc(C2C=CC(c3ccccc3)C(c3ccccc3)C2[N+](=O)[O-])cc1OC` (stereo unspecified), for which the T/C reads like this: under setting [12], 100 % of control; under setting [13], 100 % of control; under setting [14], 90 % of control.

With `O=S(=O)(c1cccc(C(F)(F)F)c1)N1c2ccccc2-n2cccc2C1c1cccnc1` (stereo unspecified), the T/C by setting is: (dose: 50.0 mg/kg/injection, schedule: Q01DX009 (ip), vehicle: Klucel (hydroxypropylcellulose) (HPC)) 94 % of control; under setting [2], 103 % of control; under setting [5], 96 % of control.

With `CC1(C)N=C(N)N=C(N)N1c1cccc(CCCCc2ccc(Cl)c(S(=O)(=O)F)c2)c1`, the T/C (dose: 1.8 mg/kg/injection, schedule: Q01DX009 (ip), vehicle: saline) is 100 % of control; the T/C (dose: 3.13 mg/kg/injection, schedule: Q01DX009 (ip), vehicle: saline) was 112 % of control; the T/C (dose: 4.0 mg/kg/injection, schedule: Q01DX009 (ip), vehicle: saline) is 114 % of control; the T/C (dose: 6.0 mg/kg/injection, schedule: Q01DX009 (ip), vehicle: saline) is 122 % of control; the T/C (dose: 7.0 mg/kg/injection, schedule: Q04DX003 (ip), vehicle: saline) is 109 % of control; the T/C (dose: 9.0 mg/kg/injection, schedule: Q01DX009 (ip), vehicle: saline) is 107 % of control. The T/C was 120 % of control under setting [19]; 150 % of control (dose: 14.0 mg/kg/injection, schedule: Q01DX009 (ip), vehicle: saline); 118 % of control (dose: 14.0 mg/kg/injection, schedule: Q04DX003 (ip), vehicle: saline); 118 % of control (dose: 28.0 mg/kg/injection, schedule: Q04DX003 (ip), vehicle: saline); 104 % of control (dose: 56.0 mg/kg/injection, schedule: Q04DX003 (ip), vehicle: saline).

`O=C(NNc1ccccc1)C12CC3CC(CC(C3)C1)C2`: the T/C is 96 % of control under setting [15] and 91 % of control under setting [16].

For the compound `O=C(/C=C/c1ccc(Cl)c(Cl)c1)c1ccc(Cl)cc1`, the T/C reads like this: under setting [20], 100 % of control; under setting [21], 100 % of control; under setting [22], 90 % of control.
